Values joined by “and” are separate entries in the source; they are usually repeats but may differ in a detail not shown here. Equal entries are not always repeated.
How the values were obtained:
TRP-1 = assay: RHE vitiligo model: melanocyte localization after TRP-1 immunostaining; assay type: cell-based, human; settings: for Mean per RHE (%): RHE1-3
Description: TRP-1 (tyrosinase related protein-1) is a melanocyte specific protein and a member of the tyrosinase gene family which also includes tyrosinase. It is very often used as specific marker of melanocytes. To visualize and quantify the melanocytes within the epidermis, sections of epidermis (6 μm thick) prepared from epidermis embedded in paraffin are used for TRP-1 immunostaining.
After deparaffination and re-hydration, antigen unmasking is performed by heating in citrate ph6 buffer. Samples are then saturated with goat serum, in order to avoid unspecific labelling.
Samples are incubated overnight, at 4° C., with a primary antibody raised against human TRP-1 (Abcam; Ab235447). After washing, the samples are incubated (for 30 minutes, at room temperature) with a secondary antibody anti-rabbit coupled to Alexa Fluor 488 dye (Thermo Fisher Scientific; A-11008). Samples are then incubated with DAPI or 4′,6′-diamidino-2-phenylindole (Thermo Fisher Scientific, D1306), a fluorescent molecule able of binding to the adenine and thymine bases of DNA and slides are mounted with specific medium, before taking the images. For each tissue/sample, 1 slide section is used to make 3 images. Images are taken using a Nikon Eclipse (Ni-E) photomicroscope coupled to a numerical camera (DS-Ri2). Quantification of the protein is performed with NIS-Element AR software (Nikon). The detection thresholds are firstly determined, using the most marked slices, in order to avoid saturation of detection. For each image, a region of interest (ROI) is delimited manually (including only the basal layers of epidermis which are supposed to contain the melanocytes) and its surface was measured. The software then measures the marked area within the delimited area, in number of pixels. The mean intensity of the marked surface multiplied by the “marked surface” determines the staining for the given ROI. This value is then normalized for a given surface by dividing the staining value by the surface of the ROI.
Formulations containing four doses of BETi1 the BETi1 vehicle (placebo), were evaluated in RHE TNF-α/IFN-γ vitiligo model as described in Experimental section Method G and representative images of RHE after TRP-1 staining are shown in FIG. 7A and respective quantification with and without normalization are shown in Table 19 and Table 20 and FIGS. 7B and FIG. 7C respectively. The stimulation with the cytokine cocktail (TNF-α and IFN- ? ) in accordance with Part A and B, reduced the expression of TRP-1 and thus the abundance of melanocytes in the basal layers of the RHE, confirming the melanocytorhagy. In the model, stimulated treated with the vehicle induced a significant […] of TRP-1 abundance as compared to the stimulated untreated control. Without being bound by any theory the barrier effect provided by petrolatum in the vehicle, which increases skin hydration, has some effect on retention of melanocytes in the basal layer. […] A dose response could clearly be observed with the BETi1 formulation, with a tendency to the increase for the dose of 0.1% and with the two last concentrations being not significant. The effects of the ruxolitinib cream at 1% could not be assessed given that the sections have detached from the glass slides during the immunostaining process (probably without being bound by any theory may be due to the bad structure of the epidermis).

[1] = Homogeneity of BETi1 dispersions in NaCMC/saline by light microscopy; assay type: physicochemical; settings: suspensions in NaCMC solutions
Description: BETi1 is dispersed in 0.5% Sodium Carboxymethyl Cellulose (NaCMC) solution in NaCl saline (0.9% NaCl in water) to receive 4 mg/gram dispersion. […] All dispersions are thermally sterilized.
BETi suspensions at 4 mg/g (0.4%), at 0.4 mg/g (0.04%) and at 0.04 mg/g (0.004%) (Table 38) were prepared in NaCMC solutions as set out in Experimental Method N. The homogeneity (including absence of aggregates of solid particles) of the dispersion was analyzed and confirmed by light microscopy as shown in FIG. 14A-C. […] In the sample at 0.04 mg/g mainly larger crystals were observed, since the smaller ones were probably dissolved.

[2] = BETi1 0.001%, stimulated RHE, without normalization to ROI
[3] = BETi1 1%, stimulated RHE, with normalization to ROI
[4] = BETi1 1%, stimulated RHE, without normalization to ROI
[5] = BETi1 10.001% [sic], stimulated RHE, with normalization to ROI

## Cn1cc(-c2cccc(O)c2Oc2ccccc2)c2cc[nH]c2c1=O [BETi1]
TRP-1; [2]
  Mean per condition (%): 24%
  Mean per RHE (%): 21.6% and 27.0% and 22.1%
TRP-1; BETi1 0.01%, stimulated RHE, with normalization to ROI
  Mean per condition (%): 15%
TRP-1; BETi1 0.01%, stimulated RHE, without normalization to ROI
  Mean per condition (%): 20%
TRP-1; BETi1 0.1%, stimulated RHE, with normalization to ROI
  Mean per condition (%): 92%
TRP-1; BETi1 0.1%, stimulated RHE, without normalization to ROI
  Mean per condition (%): 120%
TRP-1; [3]
  Mean per condition (%): 149%
  Mean per RHE (%): 169% and 120% and 158%
TRP-1; [4]
  Mean per condition (%): 192%
  Mean per RHE (%): 220.8% and 151.1% and 203.4%
TRP-1; [5]
  Mean per condition (%): 17%
  Mean per RHE (%): 18% and 19% and 14%
TRP-1; BETi1 formulation at 1%, stimulated RHE
  TRP-1 in the basal layers: TRP-1 is significantly increased in the basal layers
TRP-1; Stimulated + BETi1 0.001%
  TRP-1 % staining relative to stimulated control, Mean per RHE (%): 6% and 8%
  TRP-1 % staining relative to stimulated control, Mean per condition (%): 7%
TRP-1; Stimulated + BETi1 0.01%
  TRP-1 % staining relative to stimulated control, Mean per condition (%): 30%
TRP-1; Stimulated + BETi1 0.1%
  TRP-1 % staining relative to stimulated control, Mean per condition (%): 227%
TRP-1; Stimulated + BETi1 1%
  TRP-1 % staining relative to stimulated control, Mean per condition (%): 292%
[1]
  aggregates of API particles in dispersions: no visible aggregates of API particles

Reference: patent US20250339409A1, “USES OF PAN BET INHIBITORS” (VYNE THERAPEUTICS INC., priority 2021, published 2025)
